Assay results taken from patent publication US20180064659A1, “AGENTS USEFUL FOR TREATING OBESITY, DIABETES AND RELATED DISORDERS” (The Regents of the University of California, priority 2015, published 2018).

Legend:
[1] = tested on: insulin-dependent activation of Akt in FL83B mouse liver cells; assay: Western blot of insulin-dependent phospho-Akt activation in FL83B cells; format: cell-based; conditions: for Insulin-dependent P-Akt signaling: Western blot
Text: (§1) Western blot protocol of phospho-Akt (columns 2-4) and phospho-Erk (columns5-7). As explained above and in Example 4, Western blots of phospho-Akt and phospho-Erk are a more accurate and precise and quantitative measure of Akt phosphorylation than ICWB measurements. Insulin-dependent phospho-Akt is a direct measurement of insulin sensitivity, and we expect that Shc inhibitors will stimulate phospho-Akt more than phospho-Erk. All of the drugs listed in FIG. 5A stimulated insulin-dependent phospho-Akt at some concentration. Method. Mouse liver cells FL83B were plated at density of 400.000 cells per well of 6 well pate and cultivated for 48 hours, media was changed to DMEM, 25 mM glucose serum free and 16 hours later the cells were treated with drug at the indicated concentration for one hour. Control wells were treated with the vehicle (DMSO), in certain control wells the metabolic (Akt) insulin signaling was blocked with wortmannin. The cells were induced with indicated concentration of insulin for 10 minutes, total protein was extracted and the Western Blots were performed with indicated antibody as described above. […]
Sensogramms were obtained, and response [nm] for each concentration was plotted against log concentration of idebenone. […] Cells were stimulated with 0.2 nM insulin for 10 minutes, and Western analyzed for induction of Akt and ERK. […] Sigmoidal dose-response (variable slope) fitting analysis was performed, EC50, hill slope, and top response were identified, as described above, and are indicated on the graph. p-value was calculated by testing R^2 for significance for N=65. […] For ITT, the food was deprived at 7 am (the beginning of light phase), basal glucose was measured at 11 am, and insulin was administrated at 0.8 U/kg dose; blood glucose was recorded and expressed as % of baseline, and plotted against time. […]

phospho-Shc = assay: Western blot of phospho-Shc; format: cell-based
Description: Assays to identify compounds useful for preventing, reducing, delaying or inhibiting symptoms of impaired insulin sensitivity, glucose intolerance or obesity can be performed in vitro. Candidate agents can be contacted with a population of test cells in the presence of insulin (e.g., 1 nM, 5 nM, 10 nM, 100 nM or more). An agent that prevents, reduces, delays or inhibits one or more symptoms of impaired insulin sensitivity, glucose intolerance or obesity increases the ratio of levels of phospho-Akt-1 over phospho-Erk relative to a control ratio. The increase in ratio of levels of phospho-Akt-1 over phospho-Erk can be determined in comparison to a control population of cells that have not been contacted with insulin or have been contacted with a low concentration of insulin (e.g., less than 0.1 nM) or a population of cells contacted with insulin but not with the compound under test. Ratio of levels of phospho-Akt-1 over phospho-Erk can be determined using a Western blot among other methods. Inhibition of Shc activity can be quantitatively measured by assaying the reduction of stimulatory Shc phosphorylation, using a phospho-Shc specific antibody. Inhibition of Shc expression can be measured using a Western blot. […]

[2] = tested on: corticosterone-treated mice; assay: Corticosterone-treated mice: blood glucose and ITT; format: in vivo, mouse
Description: Mice were kept pathogen-free throughout the study. All experimental procedures were approved by the Institutional Animal Care and Use Committee (IACUC) and were performed in compliance with local, state, and federal regulations. Diet was LM-485 (Teklad 7012) with nutrient composition: protein=19.9%, carbohydrates=53.7%, fat=5.7%. The source of lipid was soybean oil, protein-soybean meal, energy source-ground oats. Group of 36 13-month old male and female mice were tested with ITT before the study began and were started on Corticosterone in drinking water at 100 mg/L. Body weight and blood glucose were monitored. FIG. 12A illustrates experimental flow. Mice were started on corticosterone at day 1 and continued on it through the study. At day 13 the group was randomly split 1:1 and half were given idebenone as a mixture with peanut butter daily, another half was given placebo daily for another 5 days. All mice continued receiving corticosterone in drinking water for these 5 days, and then ITT were performed. For insulin tolerance tests mice were fasted for six hours and given intra-peritoneal injection of insulin (0.2 U/kg); then blood glucose was measured in the indicated time course (FIG. 12D). FIG. 12B bars are body weights in grams. […] (FIG. 12D) ITT of Control, CS+placebo, and CS+idebenone groups. […] Error bars are standard deviations. *=p<0.05. […]

Shc-PTB domain = biological target: T1, Shc-PTB domain (Homo sapiens, UniProt P29353); assay: Octet RED 384 binding to p52Shc protein (p52Shc lacking PTB domain as reference); conditions: for EC50: 10 pM to 100 uM, Octet RED 384
T1 sequence (P29353 1-473 isoform P29353-2): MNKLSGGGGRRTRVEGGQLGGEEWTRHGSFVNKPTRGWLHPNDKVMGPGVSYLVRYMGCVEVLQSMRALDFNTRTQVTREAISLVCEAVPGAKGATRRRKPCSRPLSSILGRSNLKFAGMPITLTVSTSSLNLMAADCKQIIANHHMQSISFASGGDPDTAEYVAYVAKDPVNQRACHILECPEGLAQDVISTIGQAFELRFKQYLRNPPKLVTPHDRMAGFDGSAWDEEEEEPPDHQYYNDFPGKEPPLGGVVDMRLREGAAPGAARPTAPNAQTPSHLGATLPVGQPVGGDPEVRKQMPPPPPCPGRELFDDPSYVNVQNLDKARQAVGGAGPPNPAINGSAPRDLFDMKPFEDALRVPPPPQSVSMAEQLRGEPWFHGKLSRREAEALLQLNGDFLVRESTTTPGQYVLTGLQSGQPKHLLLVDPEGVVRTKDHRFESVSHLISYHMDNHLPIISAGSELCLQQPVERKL
Description: (§2) Sensogramms were obtained, and response [nm] for each concentration was plotted against log concentration of idebenone. Sigmoidal, variable slope fitting analysis was performed using GraphPad Prism Software (GraphPad Software, Inc., La Jolla, Calif.). […] Cells were stimulated with 0.2 nM insulin for 10 minutes, and Western analyzed for induction of Akt and ERK. Insulin dependent activation of Akt is presented as fold change over vehicle control, and plotted against log concentration of idebenone; tubulin signal was used for normalization between biological samples. Sigmoidal dose-response (variable slope) fitting analysis was performed, EC50, hill slope, and top response were identified, as described above, and are indicated on the graph. p-value was calculated by testing R^2 for significance for N=65. […] Idebenone at indicated dose was given to animals 30 minutes before dark phase for five days. At the day of Insulin Tolerance Test (ITT) additional dose of idebenone was given to animals two hours prior to insulin injection. For ITT, the food was deprived at 7 am (the beginning of light phase), basal glucose was measured at 11 am, and insulin was administrated at 0.8 U/kg dose; blood glucose was recorded and expressed as % of baseline, and plotted against time. […] Software (CambridgeSoft Corporation, Waltham, Mass.), and virtually docked to Shc-PTB using iGEMDOCK software (BioXGEM Lab, National Chiao-Tung University Hsinchu, Taiwan, R.O.C), and, MOL file was generated. Three dimensional structure of PTB domain of Shc was obtained from Protein Data Bank (http://www.rcsb.org/).
FIGS. 9A-E illustrate that SrcI-1 binds into PTB domain of Shc protein. […] Sensograms were obtained and shown. […] Sigmoidal, variable slope fitting analysis was performed; EC50, hill slope, and top response were identified, and indicated. p-value was calculated by testing R^2 for significance for N=24; SrcI-1 was binding to Shc-PTB domain with EC50 of 3 μM.
FIGS. 11A-F illustrate details of interaction of idebenone analogs, idebenone and SrcI-1 with Shc protein. […]

FL83B cells = assay: High-throughput in-cell western blot (ICWB) screen for insulin sensitizers, P-Akt over P-ERK; format: cell-based, mouse; conditions: for Score rank in screening assay: 1689 molecules screened
Description: Drugs were screened by in-cell western blot (ICWB) for their ability to stimulate phospho-Akt activation in the presence of trace or 10 nM insulin (FIG. 4A). Cells in wells were treated with drugs, and the activity (phosphorylation) of Akt was determined by a phospho-Akt specific antibody. In FIG. 4A, low insulin was given and drugs a, b, c, stimulated Akt activation. In FIG. 4B, 10 nM insulin was given and a, b, and c stimulated signaling over background, and d and […] inhibited. […] Drugs were primarily screened for their ability to promote insulin-dependent stimulation of (phospho)Akt, then secondarily screened for lack of activity to stimulate (phospho) Erk, or a high Akt/Erk ratio. Such drugs are expected to cause insulin sensitivity, resistance to obesity, and longevity. Some drugs having these desired characteristics are Shc inhibitors.
Primary ICWB was performed as follows: FL83B cells were seeded on 384 well plates, 10,000 cells per well in F-12 media supplemented with 10% FBS and 25 mM glucose; 48 hours later the media was replaced with F-12, 25 mM glucose without FBS for sixteen hours; cells were supplemented with assigned drug at desired concentration for 1 hour in duplicate and then, the cells were stimulated with desired concentration of insulin for ten minutes for Akt activation and fifteen minutes for ERK activation measurements. After that time the media was removed and replaced with fixing solution of 5% Formaldehyde in PBS, pH=7.4, 30 minutes later, the fixing solution was replaced with the permeabilization buffer, 0.1% triton X100 in PBS for 40 minutes. […] After the incubation with the secondary antibodies for one hour at room temperature, the wells were washed again two times with the 0.1% tween-20 in PBS and scanned on the Li-Cor Odyssey infrared scanner; images were analyzed with the Li-Cor Odyssey software. […] Phospho-Akt, Phospho-ERK signals than were normalized by tubulin signals in each well and the densitometric results were analyzed to identify drugs which improved metabolic insulin sensitivity without inducing the mitogenic ERK activation. […]

mice = assay: Insulin tolerance test (ITT) and basal blood glucose in mice; format: in vivo, mouse; conditions: for Insulin sensitivity in vivo (ITT): PO 20 and 50 mg/kg in peanut butter, five days
Description: Insulin Tolerance Test (ITT) and Glucose Tolerance Test (GTT) Protocol for FIG. 2C: Groups of age/sex matched mice of Control and ShcKO genotypes were food deprived for four hours and challenged with I.P. injection of insulin, and glucose concentration was determined in blood exactly at indicated time-points. Decrease and recovery of blood glucose was calculated as a % of basal level (the time-point before insulin injection). Basal levels of glucose were measured in triplicate for each mouse. For the GTT, the same groups of mice were fasted during fourteen hours and challenged with glucose injection I.P., analogously the blood glucose concentrations were measured.
In-vivo drugs testing to improve the insulin sensitivity of periphery for FIG. 6D, E: Groups of mice, ten for the experimental drug treatment and 14 for the placebo treatment were subject for I.P. administration of a drug or placebo solutions daily during four days. Acarbose, a known drug which decreases blood glucose concentration was used as a control. The insulin tolerance test, ITT was performed on the mice as described previously, in Example 2.
as §2

[3] = tested on: Erk activation in FL83B mouse liver cells; assay: Western blot of phospho-Erk activation in FL83B cells; format: cell-based
Text: as §1

| EC50 (Shc-PTB domain; 48 point titration) | EC50 (Shc-PTB domain; 24 point titration) | Compound | EC50 ([1]; Mus musculus, drug 1 hour, 0.2 nM insulin for 10 minutes, 65 points, read-out: EC50 of sensitizing cells to insulin (insulin dependent activation of Akt)) | Insulin-dependent P-Akt signaling [1] | phospho-Shc activation (phospho-Shc) | Blood glucose level ([2]; 18th day, corticosterone 100 mg/L in drinking water, idebenone daily 5 days, versus placebo) | Sensitivity to insulin in ITT ([2]; 40, 60, and 90 minutes after insulin 0.2 U/kg, versus corticosterone plus placebo) | P-Akt/P-Erk ratio in primary screen (FL83B cells; ICWB primary screen) | Insulin sensitivity in vivo (ITT) (mice) | Insulin sensitivity in vivo (ITT) (mice; listed as Idebenone) | Score rank in screening assay (FL83B cells) | Erk activation [3] | P-Akt/P-Erk ratio [3] | Binding to Shc-PTB (Shc-PTB domain; Octet RED 384 sensograms) | Basal blood glucose (mice; 2.5 mg/kg I.P. for 4 days) | Insulin sensitivity in-vivo (ITT) (mice; 2.5 mg/kg I.P. for 4 days) |
| --- | --- | --- | --- | --- | --- | --- | --- | --- | --- | --- | --- | --- | --- | --- | --- | --- |
| 1.2 nM |  | COC1=C(OC)C(=O)C(CCCCCCCCCCO)=C(C)C1=O [idebenone] | 3.3 nM | increased insulin-dependent phospho-Akt activation in a dose-dependent manner | decreased phospho-Shc in a dose-dependent manner | significant decrease comparing to placebo group in blood glucose level | significantly more sensitive to insulin than corticosterone plus placebo | increased P-Akt/P-Erk ratio | increased insulin sensitivity in vivo | significantly improving insulin sensitivity in-vivo |  |  |  |  |  |  |
|  |  | CN(C)C(=N)N=C(N)N [metformin] |  |  |  |  |  |  |  |  | scored in the top 35 out of 1689 molecules |  |  |  |  |  |
|  | 3000 nM | COc1cc2ncnc(Nc3ccc(Oc4ccccc4)cc3)c2cc1OC [SrcI-1] |  | stimulates insulin-dependent P-Akt signaling | inhibited phospho-Shc activation in dose-dependent manner |  |  |  |  |  | scored in the top 35 out of 1689 molecules | decreased Erk activation | increasing the P-Akt/P-Erk ratio | binding to Shc-PTB in dose-dependent fashion | significantly decreased basal blood glucose | increased insulin sensitivity in-vivo |
